Laboratory results taken from PubChem BioAssay AID192 (DTP/NCI, 2004).
Several values for one entry are separate records, joined by “and”; a condition that tells them apart may be missing. Equal entries are not always repeated. Toxic doses and inconclusive results are not listed.

Test system: BDF1 mice, B16 melanoma ip, median survival T/C
Experiment: NCI In Vivo Anticancer Drug Screen. Data for tumor model B16 Melanoma (intraperitoneal) in B6D2F1 (BDF1) mice
Conditions: endpoint: median survival time, higher = longer survival
Procedure, shortened: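 Antitumor activity is assessed in mice bearing a transplanted tumor, with survival or tumor size compared against vehicle-dosed controls and expressed as T/C.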

[1] = dose: 25.0 mg/kg/injection, schedule: Q01DX009 (ip), vehicle: saline
[2] = dose: 50.0 mg/kg/injection, schedule: Q01DX009 (ip), vehicle: saline
[3] = dose: 25.0 mg/kg/injection, schedule: Q01DX009 (ip), vehicle: Klucel (hydroxypropylcellulose) (HPC)
[4] = dose: 12.5 mg/kg/injection, schedule: Q01DX009 (ip), vehicle: saline with Tween-80
[5] = dose: 12.5 mg/kg/injection, schedule: Q04DX003 (ip), vehicle: saline with Tween-80
[6] = dose: 25.0 mg/kg/injection, schedule: Q01DX009 (ip), vehicle: saline with Tween-80
[7] = dose: 25.0 mg/kg/injection, schedule: Q04DX003 (ip), vehicle: saline with Tween-80
[8] = dose: 50.0 mg/kg/injection, schedule: Q01DX009 (ip), vehicle: saline with Tween-80
[9] = dose: 50.0 mg/kg/injection, schedule: Q04DX003 (ip), vehicle: saline with Tween-80
[10] = dose: 50.0 mg/kg/injection, schedule: Q01DX009 (ip), vehicle: Klucel (hydroxypropylcellulose) (HPC)
[11] = dose: 100.0 mg/kg/injection, schedule: Q01DX009 (ip), vehicle: Klucel (hydroxypropylcellulose) (HPC)
[12] = dose: 75.0 mg/kg/injection, schedule: Q01DX009 (ip), vehicle: Klucel (hydroxypropylcellulose) (HPC)
[13] = dose: 150.0 mg/kg/injection, schedule: Q01DX009 (ip), vehicle: Klucel (hydroxypropylcellulose) (HPC)
[14] = dose: 200.0 mg/kg/injection, schedule: Q01DX009 (ip), vehicle: Klucel (hydroxypropylcellulose) (HPC)
[15] = dose: 400.0 mg/kg/injection, schedule: Q01DX009 (ip), vehicle: Klucel (hydroxypropylcellulose) (HPC)
[16] = dose: 100.0 mg/kg/injection, schedule: Q01DX009 (ip), vehicle: saline with Tween-80
[17] = dose: 200.0 mg/kg/injection, schedule: Q01DX009 (ip), vehicle: saline with Tween-80

For `COC(=O)CCCCCNC(=O)NCCCCCC(=O)OC`, the T/C (dose: 100.0 mg/kg/injection, schedule: Q04DX003 (ip), vehicle: Klucel (hydroxypropylcellulose) (HPC)) was 86 % of control, the T/C (dose: 200.0 mg/kg/injection, schedule: Q04DX003 (ip), vehicle: Klucel (hydroxypropylcellulose) (HPC)) was 95 % of control and the T/C (dose: 400.0 mg/kg/injection, schedule: Q04DX003 (ip), vehicle: Klucel (hydroxypropylcellulose) (HPC)) was 91 % of control.
`CC1NC(=O)C2Cc3ccc(O)c(c3)Oc3ccc(cc3)C(O)C(C(=O)N2C)N(C)C(=O)C(C)NC(=O)C(Cc2ccc(O)cc2)N(C)C(=O)C(C)NC1=O` (configuration not stated) was tested, and the T/C (dose: 1.0 mg/kg/injection, schedule: Q01DX009 (ip), vehicle: saline with Tween-80) was 97 % of control, the T/C (dose: 2.0 mg/kg/injection, schedule: Q01DX009 (ip), vehicle: saline with Tween-80) was 91 % of control and the T/C (dose: 4.0 mg/kg/injection, schedule: Q01DX009 (ip), vehicle: saline with Tween-80) was 99 % of control. The T/C (dose: 8.0 mg/kg/injection, schedule: Q01DX009 (ip), vehicle: saline with Tween-80) was 96 % of control and the T/C (dose: 16.0 mg/kg/injection, schedule: Q01DX009 (ip), vehicle: saline with Tween-80) was 94 % of control.
In the case of `CCN(CC)CCOC(=O)Cc1cccc2c(=O)cc(-c3ccccc3)oc12`, the T/C [1] is reported as 109 % of control and the T/C [2] is reported as 113 % of control.
In the case of `Cc1ccc(NCCN(C)C)c2c(=O)c3cc(O)ccc3sc12`, the T/C (dose: 3.0 mg/kg/injection, schedule: Q01DX009 (ip), vehicle: Klucel (hydroxypropylcellulose) (HPC)) is reported as 119 % of control, the T/C (dose: 12.0 mg/kg/injection, schedule: Q01DX009 (ip), vehicle: Klucel (hydroxypropylcellulose) (HPC)) is reported as 157 % of control and the T/C (dose: 24.0 mg/kg/injection, schedule: Q01DX009 (ip), vehicle: Klucel (hydroxypropylcellulose) (HPC)) is reported as 160 % of control. For the same compound, the T/C [3] was 162 % of control.
With `C=C1C(=O)OC2C3OC(C)(CCC(O)C3COC(C)=O)CC(OC(=O)/C(=C/C)COC(C)=O)C12` (configuration not stated) the T/C (dose: 0.04 mg/kg/injection, schedule: Q01DX009 (ip), vehicle: suspension in saline) was 111 % of control, the T/C (dose: 0.09 mg/kg/injection, schedule: Q01DX009 (ip), vehicle: suspension in saline) was 109 % of control and the T/C (dose: 0.18 mg/kg/injection, schedule: Q01DX009 (ip), vehicle: suspension in saline) was 107 % of control. For the same compound, the T/C (dose: 0.37 mg/kg/injection, schedule: Q01DX009 (ip), vehicle: suspension in saline) was 91 % of control, the T/C (dose: 6.25 mg/kg/injection, schedule: Q01DX009 (ip), vehicle: Klucel (hydroxypropylcellulose) (HPC)) was 91 % of control and the T/C (dose: 12.5 mg/kg/injection, schedule: Q01DX009 (ip), vehicle: Klucel (hydroxypropylcellulose) (HPC)) was 98 % of control. For the same compound, the T/C [3] was 105 % of control.
`O/N=C1\CCCC\C1=N/O.O/N=C1\CCCC\C1=N/O.[Pd]` was tested, and the T/C (dose: 25.0 mg/kg/injection, schedule: Q04DX003 (ip), vehicle: other) was 101 % of control, the T/C (dose: 50.0 mg/kg/injection, schedule: Q04DX003 (ip), vehicle: other) was 91 % of control and the T/C (dose: 100.0 mg/kg/injection, schedule: Q04DX003 (ip), vehicle: other) was 93 % of control.
`Oc1c(Cl)c(Cl)c(Cl)c(Cl)c1Cl` (tested in a mixture with another compound) was tested, and the T/C [4] was 107 % of control, the T/C [5] was 122 % of control and the T/C [6] was 115 % of control. For the same compound, the T/C [7] was 102 % of control, the T/C [8] was 121 % of control and the T/C [9] was 102 % of control.
With `Cc1oc2c(c(=O)c1C)C1CCC(C2)N1C` (configuration not stated) the T/C [3] was 103 % of control, the T/C [10] was 103 % of control and the T/C [11] was 97 % of control.
In the case of `Oc1ccccc1C(Nc1nc2ccccc2s1)c1ccc2cccnc2c1O` (configuration not stated), the T/C [3] is reported as 114 % of control, the T/C [10] is reported as 105 % of control and 119 % of control (2×) and the T/C [12] is reported as 107 % of control. The T/C [11] was 110 % of control and 119 % of control, the T/C [13] was 97 % of control and the T/C [14] was 124 % of control. The T/C [15] was 152 % of control.
With `Clc1nnc(Nc2ccccc2)c2ccccc12` the T/C [11] was 92 % of control, the T/C [14] was 97 % of control and the T/C [15] was 86 % of control.
For `CCOC(=O)C(C)C(=O)O` (configuration not stated), the T/C (dose: 12.5 mg/kg/injection, schedule: Q01DX009 (ip), vehicle: saline) was 116 % of control, the T/C [1] was 101 % of control and the T/C [8] was 99 % of control. For the same compound, the T/C [2] was 98 % of control.
For `COc1ccc2c(c1)C/C(=N\O)C2=O`, the T/C [6] was 99 % of control, the T/C [8] was 114 % of control and the T/C [16] was 92 % of control.
`O=C(Cc1ccccc1)OCCc1ccccc1` was tested, and the T/C [11] was 103 % of control, the T/C [14] was 100 % of control and the T/C [15] was 93 % of control.
For `OCC1OC(n2cnc3c(=S)nc[nH]c32)C(O)C1O` (configuration not stated), the T/C (dose: 12.5 mg/kg/injection, schedule: Q01DX009 (ip), vehicle: saline sonified) was 102 % of control, the T/C (dose: 25.0 mg/kg/injection, schedule: Q01DX009 (ip), vehicle: saline sonified) was 105 % of control and the T/C (dose: 50.0 mg/kg/injection, schedule: Q01DX009 (ip), vehicle: saline sonified) was 105 % of control. For the same compound, the T/C [8] was 104 % of control, the T/C (dose: 100.0 mg/kg/injection, schedule: Q01DX009 (ip), vehicle: saline sonified) was 95 % of control and 100 % of control and the T/C [16] was 104 % of control. For the same compound, the T/C (dose: 200.0 mg/kg/injection, schedule: Q01DX009 (ip), vehicle: saline sonified) was 102 % of control and the T/C [17] was 100 % of control.
In the case of `COc1ccccc1NC(=O)Nc1cccc(C(C)=O)c1`, the T/C [16] is reported as 94 % of control and the T/C [17] is reported as 92 % of control.
In the case of `C/C=C(\C)C(=O)O[C@@H]1c2cc3c(cc2-c2c(cc(OC)c(OC)c2OC)[C@@H]2C(=O)OC[C@@H]12)OCO3`, the T/C (dose: 1.25 mg/kg/injection, schedule: Q01DX009 (ip), vehicle: Klucel (hydroxypropylcellulose) (HPC)) is reported as 101 % of control, the T/C (dose: 2.5 mg/kg/injection, schedule: Q01DX009 (ip), vehicle: Klucel (hydroxypropylcellulose) (HPC)) is reported as 107 % of control and the T/C (dose: 5.0 mg/kg/injection, schedule: Q01DX009 (ip), vehicle: Klucel (hydroxypropylcellulose) (HPC)) is reported as 92 % of control. For the same compound, the T/C (dose: 10.0 mg/kg/injection, schedule: Q01DX009 (ip), vehicle: Klucel (hydroxypropylcellulose) (HPC)) was 96 % of control.
With `CC1=CCC=C(CNc2ncnc3nc[nH]c23)C1` the T/C (dose: 3.13 mg/kg/injection, schedule: Q01DX009 (ip), vehicle: saline with Tween-80) was 102 % of control, the T/C (dose: 6.25 mg/kg/injection, schedule: Q01DX009 (ip), vehicle: saline with Tween-80) was 102 % of control and the T/C [4] was 90 % of control. The T/C [5] was 100 % of control, the T/C [7] was 102 % of control and the T/C [8] was 88 % of control. For the same compound, the T/C [9] was 102 % of control.
With `CCCCCC/C=C/C#CCCCCCCCC(=O)O` the T/C (dose: 37.5 mg/kg/injection, schedule: Q01DX009 (ip), vehicle: Klucel (hydroxypropylcellulose) (HPC)) was 107 % of control, the T/C [12] was 99 % of control and the T/C [13] was 101 % of control.
In the case of `CSCCC(NC(=O)CN(C)C(=O)OCc1ccccc1)C(=O)O` (configuration not stated), the T/C [8] is reported as 100 % of control and the T/C [16] is reported as 100 % of control.
For `Nc1ccccc1SC1CC(=O)N(c2ccccc2)C1=O` (configuration not stated), the T/C [3] was 97 % of control, the T/C [10] was 91 % of control and the T/C [11] was 90 % of control and 92 % of control.
In the case of `O=[N+]([O-])c1ccc(N2CCC(CCCC3CCN(c4ccc([N+](=O)[O-])cc4[N+](=O)[O-])CC3)CC2)c([N+](=O)[O-])c1`, the T/C [3] is reported as 106 % of control and the T/C [11] is reported as 112 % of control.
In the case of `O=c1cnn(C2OC(CO)C(O)C2O)c(=O)[nH]1` (configuration not stated), the T/C [12] is reported as 99 % of control and 100 % of control, the T/C (dose: 125.0 mg/kg/injection, schedule: Q03HX024 (ip), vehicle: water) is reported as 116 % of control and the T/C (dose: 125.0 mg/kg/injection, schedule: Q03HX032 (ip), vehicle: water) is reported as 119 % of control. For the same compound, the T/C [13] was 92 % of control and 101 % of control, the T/C (dose: 250.0 mg/kg/injection, schedule: Q03HX024 (ip), vehicle: water) was 124 % of control and the T/C (dose: 300.0 mg/kg/injection, schedule: Q01DX009 (ip), vehicle: Klucel (hydroxypropylcellulose) (HPC)) was 100 % of control and 102 % of control. The T/C (dose: 600.0 mg/kg/injection, schedule: Q01DX009 (ip), vehicle: Klucel (hydroxypropylcellulose) (HPC)) was 101 % of control and 102 % of control and the T/C (dose: 1200.0 mg/kg/injection, schedule: Q01DX009 (ip), vehicle: Klucel (hydroxypropylcellulose) (HPC)) was 99 % of control.
